For 20 molecules, IC50 and EC50 results are on record in patent US7642251B2, “Compounds for the treatment of hepatitis C” (Bristol-Myers Squibb Company, priority 2007, dated 2010).

In general, IC50 refers to the point on the concentration scale where inhibition reaches its midpoint. In general, EC50 refers to the concentration giving half of the maximal effect.

SMILES strings stand for the structures.

For one assay, the target named is T1, HCV NS5B (Hepatitis C virus genotype 1b, UniProt Q9WMX2).
T1 construct: The cDNA encoding the NS5B protein of HCV, genotype 1b; made in house; host or cells: E. coli BL21(DE3)
T1 sequence (Q9WMX2 2420-2992): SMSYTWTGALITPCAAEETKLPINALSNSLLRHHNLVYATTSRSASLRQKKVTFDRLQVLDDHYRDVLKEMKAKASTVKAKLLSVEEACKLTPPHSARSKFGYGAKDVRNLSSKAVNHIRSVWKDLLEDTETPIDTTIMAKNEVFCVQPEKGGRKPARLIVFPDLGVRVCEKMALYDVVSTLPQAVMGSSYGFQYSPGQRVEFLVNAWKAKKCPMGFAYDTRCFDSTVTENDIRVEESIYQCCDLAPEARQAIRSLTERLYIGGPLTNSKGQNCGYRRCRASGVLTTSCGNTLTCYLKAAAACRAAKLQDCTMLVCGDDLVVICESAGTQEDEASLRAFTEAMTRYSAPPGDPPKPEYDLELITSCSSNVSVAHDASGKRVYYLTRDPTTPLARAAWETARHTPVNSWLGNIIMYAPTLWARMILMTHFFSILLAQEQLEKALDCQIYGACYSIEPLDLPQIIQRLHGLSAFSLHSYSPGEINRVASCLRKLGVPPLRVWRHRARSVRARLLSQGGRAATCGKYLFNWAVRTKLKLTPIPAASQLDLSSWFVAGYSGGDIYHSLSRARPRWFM
Nature of the assay: Modified HCV NS5B RdRp enzyme assay (preincubation protocol). The following applies: preincubation protocol; read-out: IC50. The assay is classed as biochemical. On the procedure: HCV NS5B RdRp cloning, expression, and purification. The cDNA encoding the NS5B protein of HCV, genotype 1b, was cloned into the pET21a expression vector. The protein was expressed with an 18 amino acid C-terminal truncation to enhance the solubility. The E. coli competent cell line BL21(DE3) was used for expression of the protein. Cultures were grown at 37° C. for ˜4 hours until the cultures reached an optical density of 2.0 at 600 nm. The cultures were cooled to 20° C. and induced with 1 mM IPTG. Fresh ampicillin was added to a final concentration of 50 μg/ml and the cells were grown overnight at 20° C.
Cell pellets (3 L) were lysed for purification to yield 15-24 mgs of purified NS5B. The lysis buffer consisted of 20 mM Tris-HCl, pH 7.4, 500 mM NaCl, 0.5% triton X-100, 1 mM DTT, 1 mM EDTA, 20% glycerol, 0.5 mg/ml lysozyme, 10 mM MgCl2, 15 ug/ml deoxyribonuclease I, and Complete™ protease inhibitor tablets (Roche). After addition of the lysis buffer, frozen cell pellets were resuspended using a tissue homogenizer. To reduce the viscosity of the sample, aliquots of the lysate were sonicated on ice using a microtip attached to a Branson sonicator. The sonicated lysate was centrifuged at 100,000×g for 1 hr at 4° C. and filtered through a 0.2 μm filter unit (Corning).
The protein was purified using three sequential chromatography steps: Heparin sepharose CL-6B, polyU sepharose 4B, and Hitrap SP sepharose (Pharmacia). The chromatography buffers were identical to the lysis buffer but contained no lysozyme, deoxyribonuclease I, MgCl2 or protease inhibitor and the NaCl concentration of the buffer was adjusted according to the requirements for charging the protein onto the column. Each column was eluted with a NaCl gradient which varied in length from 5-50 column volumes depending on the column type. After the final chromatography step, the resulting purity of the enzyme is >90% based on SDS-PAGE analysis. The enzyme was aliquoted and stored at −80° C.
Standard HCV NS5B RdRp enzyme assay. HCV RdRp genotype 1b assays were run in a final volume of 60 μl in 96 well plates (Costar 3912). The assay buffer is composed of 20 mM Hepes, pH 7.5, 2.5 mM KCl, 2.5 mM MgCl2, 1 mM DTT, 1.6 U RNAse inhibitor (Promega N2515), 0.1 mg/ml BSA (Promega R3961), and 2% glycerol. All compounds were serially diluted (3-fold) in DMSO and diluted further in water such that the final concentration of DMSO in the assay was 2%. HCV RdRp genotype 1b enzyme was used at a final concentration of 28 nM. A polyA template was used at 6 nM, and a biotinylated oligo-dT12 primer was used at 180 nM final concentration. Template was obtained commercially (Amersham 27-4110). Biotinylated primer was prepared by Sigma Genosys. 3H-UTP was used at 0.6 μCi (0.29 μM total UTP). Reactions were initiated by the addition of enzyme, incubated at 30° C. for 60 min, and stopped by adding 25 μl of 50 mM EDTA containing SPA beads (4 μg/μl, Amersham RPNQ 0007). Plates were read on a Packard Top Count NXT after >1 hr incubation at room temperature.
Modified HCV NS5B RdRp enzyme assay. A modified enzyme assay was performed essentially as described for the standard enzyme assay except for the following: The biotinylated oligo dT12 primer was precaptured on streptavidin-coated SPA beads by mixing primer and beads in assay buffer and incubating at room temperature for one hour. Unbound primer was removed after centrifugation. The primer-bound beads were resuspended in 20 mM Hepes buffer, pH 7.5 and used in the assay at final concentrations of 20 nM primer and 0.67 μg/μl beads. Order of addition in the assay: enzyme (14 nM) was added to diluted compound followed by the addition of a mixture of template (0.2 nM), 3H-UTP (0.6 μCi, 0.29 μM), and primer-bound beads, to initiate the reaction; concentrations given are final. Reactions were allowed to proceed for 4 hours at 30° C.
IC50 values for compounds were determined using seven different [I]. […]

The subject of a further assay is HCV replicon cells. Nature of the assay: HCV replicon FRET assay. The assay is classed as cell-based. The following applies: Hepatitis C virus; FRET assay; read-out: EC50. An excerpt: FRET Assay Preparation. To perform the HCV FRET screening assay, 96-well cell culture plates were used. The FRET peptide (Anaspec, Inc.) (Taliani et al., Anal. Biochem. 1996, 240, 60-67) contains a fluorescence donor, EDANS, near one end of the peptide and an acceptor, DABCYL, near the other end. The fluorescence of the peptide is quenched by […] resonance energy transfer (RET) between the donor and the acceptor, but as the NS3 protease cleaves the peptide the products are released from RET quenching and the fluorescence of the donor becomes apparent. The assay reagent was made as follows: 5× cell Luciferase cell culture lysis reagent from Promega (#E153A) diluted to 1× with dH2O, NaCl added to 150 mM final, the FRET peptide diluted to 20 μM final from a 2 mM stock.
To prepare plates, HCV replicon cells, with or without a Renilla luciferase reporter gene, were trypsinized and placed into each well of a 96-well plate with titrated test compounds added in columns 3 through 12; columns 1 and 2 contained a control compound (HCV protease inhibitor), and the bottom row contained cells without compound. The plates were then placed in a CO2 incubator at 37° C.
Assays. Subsequent to addition of the test compounds described above (FRET Assay Preparation), at various times the plate was removed and Alamar blue solution (Trek Diagnostics, #00-100) was added per well as a measure of cellular toxicity. After reading in a Cytoflour 4000 instrument (PE Biosystems), plates were rinsed with PBS and then used for FRET assay by the addition of 30 ul of the FRET peptide assay reagent described above (FRET Assay Preparation) per well. The plate was then placed into the Cytoflour 4000 instrument which had been set to 340 excite/490 emission, automatic mode for 20 cycles and the plate read in a kinetic mode. Typically, the signal to noise using an endpoint analysis after the reads was at least three-fold. Alternatively, after Alamar blue reading, plates were rinsed with PBS, 50 ul of DMEM (high glucose) without phenol red was added and plates were then used for luciferase assay using the Promega Dual-Glo Luciferase Assay System.
Compound analysis was determined by quantification of the relative HCV replicon inhibition and the relative cytotoxicity values. To calculate cytoxicity values, the average Alamar Blue fluorescence signals from the control wells were set as 100% non-toxic. The individual signals in each of the compound test wells were then divided by the average control signal and multiplied by 100% to determine […]. To calculate the HCV replicon inhibition values, an average background value was obtained from the two wells containing the highest amount of HCV protease inhibitor at the end of the assay period. These numbers were similar to those obtained from naïve Huh-7 cells.
The background numbers were then subtracted from the average signal obtained from the control wells and this number was used as 100% activity. The individual signals in each of the compound test wells were then divided by the averaged control values after background subtraction and multiplied by 100% to determine percent activity. EC50 values for a protease inhibitor titration were calculated as the concentration which caused a 50% reduction in FRET or luciferase activity. The two numbers generated for the compound plate, percent cytoxicity and percent activity were used to determine compounds of interest for further analysis.
On the technique in general: A replicon is a self-replicating genome or part of one, used to study replication in cells.

As for `COc1ccc2c(c1)C=C(c1ncccc1C(=O)N1CCOCC1)Cn1c-2c(C2CCCCC2)c2ccc(C(=O)O)cc21`, the IC50 on HCV NS5B lay within 4.58 to 500 nM. Also, the EC50 with HCV replicon cells was in the range of 4.58 to 500 nM.

Turning to `COc1ccc2c(c1)C=C(c1ncccc1C(=O)N1CCCC1)Cn1c-2c(C2CCCCC2)c2ccc(C(=O)O)cc21`, the IC50 on HCV NS5B is 4.58 to 500 nM. Besides, the EC50 with HCV replicon cells is 4.58 to 500 nM.

As for `COc1ccc2c(c1)C=C(c1ncccc1C(=O)N1CCC(O)CC1)Cn1c-2c(C2CCCCC2)c2ccc(C(=O)O)cc21`, the IC50 at HCV NS5B lay within 4.58 to 500 nM. For the same molecule, the EC50 in the assay on HCV replicon cells fell in the range of 4.58 to 500 nM.

Turning to `COc1ccc2c(c1)C=C(c1ncccc1C(=O)N1CCCCC1)Cn1c-2c(C2CCCCC2)c2ccc(C(=O)O)cc21`, the IC50 at HCV NS5B was 4.58 to 500 nM. In addition, the EC50 in the assay on HCV replicon cells was 4.58 to 500 nM.

On to `COc1ccc2c(c1)C=C(c1ncccc1C(=O)N1CCOCC1)Cn1c-2c(C2CCCCC2)c2ccc(C(=O)NS(=O)(=O)N(C)C)cc21`, for which the IC50 on HCV NS5B lay within 4.58 to 500 nM. In addition, in the assay with HCV replicon cells, the EC50 lay within 4.58 to 500 nM.

As for `COc1ccc2c(c1)C=C(c1cccc(N3CCOCC3)n1)Cn1c-2c(C2CCCCC2)c2ccc(C(=O)NS(=O)(=O)N(C)C)cc21`, the IC50 on HCV NS5B fell in the range of 4.58 to 500 nM. The concentration giving a half-maximal response (EC50) in the assay with HCV replicon cells lay in the range of 4.58 to 500 nM.

Take `COc1ccc2c(c1)C=C(c1ccc(N3CCOCC3)nn1)Cn1c-2c(C2CCCCC2)c2ccc(C(=O)NS(=O)(=O)N(C)C)cc21`: the IC50 at HCV NS5B fell in the range of 4.58 to 500 nM. Also, the EC50 with HCV replicon cells is greater than 500 nM.

Regarding `COc1ccc2c(c1)C=C(c1nccc(N(C)C)n1)Cn1c-2c(C2CCCCC2)c2ccc(C(=O)NS(=O)(=O)N(C)C)cc21`, the IC50 at HCV NS5B fell in the range of 4.58 to 500 nM. In addition, the EC50 in the assay with HCV replicon cells was greater than 500 nM.

Turning to `COc1ccc2c(c1)C=C(c1ncccc1N(C)C)Cn1c-2c(C2CCCCC2)c2ccc(C(=O)NS(=O)(=O)N(C)C)cc21`, the IC50 on HCV NS5B fell in the range of 4.58 to 500 nM. Moreover, the EC50 in the assay on HCV replicon cells lay in the range of 4.58 to 500 nM.

In the case of `COc1ccc2c(c1)C=C(c1nccc(C(=O)N3CCOCC3)n1)Cn1c-2c(C2CCCCC2)c2ccc(C(=O)NS(=O)(=O)N(C)C)cc21`, the IC50 on HCV NS5B lay within 4.58 to 500 nM. Also, in the assay on HCV replicon cells, the EC50 is 4.58 to 500 nM.

Regarding `COc1ccc2c(c1)C=C(c1ncccc1S(=O)(=O)N1CCOCC1)Cn1c-2c(C2CCCCC2)c2ccc(C(=O)NS(=O)(=O)N(C)C)cc21`, the IC50 on HCV NS5B lay in the range of 4.58 to 500 nM. In addition, in the assay on HCV replicon cells, the EC50 is 4.58 to 500 nM.

Consider `COc1ccc2c(c1)C=C(c1ncccc1N1CC(C)(C)C1=O)Cn1c-2c(C2CCCCC2)c2ccc(C(=O)NS(=O)(=O)N(C)C)cc21`, for which, on HCV NS5B, the IC50 fell in the range of 4.58 to 500 nM. Also, in the assay with HCV replicon cells, the EC50 is 4.58 to 500 nM.

In the case of `COc1ccc2c(c1)C=C(c1ncccc1C(=O)N1CCN(C)CC1)Cn1c-2c(C2CCCCC2)c2ccc(C(=O)NS(=O)(=O)N(C)C)cc21`, on HCV NS5B, the IC50 was 4.58 to 500 nM. Further, the EC50 with HCV replicon cells was in the range of 4.58 to 500 nM.

With `COc1ccc2c(c1)C=C(c1ncccc1C(=O)N(C)C)Cn1c-2c(C2CCCCC2)c2ccc(C(=O)NS(=O)(=O)N(C)C)cc21`, at HCV NS5B, the IC50 lay within 4.58 to 500 nM. Besides, in the assay with HCV replicon cells, the EC50 lay in the range of 4.58 to 500 nM.

Regarding `COc1ccc2c(c1)C=C(c1ncccc1C(=O)N1CCCC1)Cn1c-2c(C2CCCCC2)c2ccc(C(=O)NS(=O)(=O)N(C)C)cc21`, the IC50 at HCV NS5B is 4.58 to 500 nM. Also, the EC50 in the assay with HCV replicon cells lay within 4.58 to 500 nM.

Take `COc1ccc2c(c1)C=C(c1ncccc1C(=O)N1CCC(O)CC1)Cn1c-2c(C2CCCCC2)c2ccc(C(=O)NS(=O)(=O)N(C)C)cc21`: the IC50 on HCV NS5B was 4.58 to 500 nM. Further, in the assay with HCV replicon cells, the EC50 was 4.58 to 500 nM.

On to `COc1ccc2c(c1)C=C(c1ncccc1C(=O)N1CCCCC1)Cn1c-2c(C2CCCCC2)c2ccc(C(=O)NS(=O)(=O)N(C)C)cc21`, for which the IC50 on HCV NS5B was in the range of 4.58 to 500 nM. Further, the EC50 in the assay on HCV replicon cells was in the range of 4.58 to 500 nM.

Take `COc1ccc2c(c1)C=C(c1ccccc1)Cn1c-2c(C2CCCCC2)c2ccc(C(=O)NS(=O)(=O)N(C)C)cc21`: the IC50 at HCV NS5B was in the range of 4.58 to 500 nM. For the same molecule, the EC50 with HCV replicon cells was greater than 500 nM.

In the case of `COc1ccc2c(c1)CC(c1ncccc1C(=O)N1CCOCC1)Cn1c-2c(C2CCCCC2)c2ccc(C(=O)NS(=O)(=O)N(C)C)cc21` (stereo not shown), on HCV NS5B, the IC50 lay within 4.58 to 500 nM. Also, the EC50 in the assay on HCV replicon cells was 4.58 to 500 nM.

For `COc1ccc2c(c1)CC(c1cccc(N3CCOCC3)n1)Cn1c-2c(C2CCCCC2)c2ccc(C(=O)NS(=O)(=O)N(C)C)cc21` (stereo not shown), the IC50 on HCV NS5B lay in the range of 4.58 to 500 nM. Also, the EC50 with HCV replicon cells lay within 4.58 to 500 nM.
